Assay results taken from the pKa sets of Baltruschat and Czodrowski (2020).

`N#Cc1cc(C[NH+]2CCC(Nc3ncnc4sc(Cl)cc34)CC2)ccc1F` gave a pKa of 7.
`O=C(Nc1ccccc1C(=O)[O-])c1cccc(Oc2ccccc2)c1` showed a pKa of 3.3.
Work on `CC(c1cc2ccccc2s1)N(O)C(N)=O` (stereo not given) yielded a pKa of 10.2.
With `O=S(=O)(Nc1cc(F)ccc1F)c1ccc2[nH]c3c(c2c1)CCCC3` the pKa was 7.3.
Molecule `CN1C(=O)Cn2cc(C(=O)NCc3ccc(Cl)cc3)c(=O)c3cc(C[NH+]4CCOCC4)cc1c32` has a pKa of 6.2.
`CCc1ccc(-c2cn3c([nH+]2)SCC3)cc1` showed a pKa of 4.8.
Molecule `Cc1ccc2nc(N)ccc2c1` has a pKa of 7.6.
Work on `Cc1[nH]c2ccccc2c1CC[NH2+]Cc1ccc(CCC(=O)N=O)cc1` yielded a pKa of 8.6.
Work on `COc1ccc2c(c1)CN(C(=O)CC[NH+]1CCC(Cc3ccccc3)CC1)CCS2` yielded a pKa of 8.3.
For `O=c1[nH]c2ccccc2c(=O)n1CCCl`, the pKa was 10.
Molecule `O=C1CCN(Cc2ccccc2)C(=O)N1` has a pKa of 11.7.
`Fc1ccccc1C1=Cc2ccccc2C2=[NH+]CCN12` gave a pKa of 10.2.
Work on `Nc1nc(-c2ccccc2)cc2ccccc12` yielded a pKa of 6.9.
For `CS(=O)(=O)c1ccc(-c2cnc(N)c(-c3ccc(C(F)(F)F)cc3)c2)cc1`, the pKa was 4.9.
`C1=C(c2cccc3ccccc23)N2CC[NH+]=C2c2ccccc21` gave a pKa of 10.3.
For `C1=CN2CC(c3ccccc3)[NH+]=C2S1` (stereo not given), the pKa was 8.7.
For `Cc1cc(C)nc(N2CCC3(CCCN(Cc4cn(C)c5ccccc45)C3=O)CC2)n1`, the pKa was 4.7.
`COc1ccc(-c2cnc3c(-c4cccc5ncccc45)cnn3c2)cc1` showed a pKa of 4.4.
With `N#Cc1c(-c2ccccc2)nc(SCc2ccccc2)[nH]c1=O` the pKa was 4.5.
`COc1ccc(-c2nc(Nc3ccc(F)cc3F)c3ccccc3n2)cc1OC` gave a pKa of 5.2.
`O=C(Nc1ccc(Cl)cc1)NS(=O)(=O)c1ccc(Cl)cc1` gave a pKa of 3.4.
Molecule `CC(NC(=O)c1ccccc1/N=C/c1c(O)ccc2ccccc12)c1ccccc1` (stereo not given) has a pKa of 6.9.
`O=C(NC(=O)c1ccccc1)c1ccccc1` showed a pKa of 9.9.
`O=C(NCc1ccc(Cl)cc1)c1cn2c(CCO)cc3cc(C[NH+]4CCOCC4)cc(c1=O)c32` gave a pKa of 5.9.
Work on `O=C(Nc1cccc(Cl)c1)c1ccccc1O` yielded a pKa of 7.2.
For `Cc1nc2ccccn2c1C(=O)NCc1ccc(Cl)cc1`, the pKa was 5.1.
`NC(=O)c1cccc(-c2cc(Nc3ccc(OC(F)(F)F)cc3)ncn2)c1` gave a pKa of 4.
Work on `COc1ccc(/C=C/C(=O)N2CCN(c3ccccn3)CC2)cc1` yielded a pKa of 5.3.
`CCN(CC)c1ncnc2c1cnn2C` showed a pKa of 4.2.
For `Cc1ccc(C)c(CN2C(=O)CCCC23CCN(c2cnc4ccccc4n2)CC3)c1`, the pKa was 3.4.
With `O=C(Cc1ccccc1)N1CCCC12CCN(c1cnc3ccccc3n1)CC2` the pKa was 3.6.
`COc1cccc(-c2cccc(CCC3(C)CC(=O)N(C)C(N)=[NH+]3)c2)c1` (stereo not given) showed a pKa of 9.4.
With `CCOC(=O)N1CCC(C)(C[NH+]2CCC3(CC2)CN(S(C)(=O)=O)c2ncccc23)CC1` the pKa was 8.5.
Work on `O=C(Nc1ccccc1C(=O)[O-])c1ccc(-c2ccccc2)cc1` yielded a pKa of 3.2.
For `CC(C)Nc1nc(Nc2ccc(C(N)=O)cc2)c2sccc2n1`, the pKa was 6.3.
`O=c1cc(CSc2cccc(F)c2F)nc2cc[nH]n12` gave a pKa of 7.35.
For `O=c1ccc2nc3ccc(O)cc3oc-2c1`, the pKa was 5.8.
`CC(C)Oc1ccc(Cc2ccc(NC3=[NH+]CCN3)cc2)cc1` showed a pKa of 10.5.
Molecule `COc1ccc2[nH]cc(CN3CCCC4(CCN(c5nc(C)cc(C)n5)CC4)C3=O)c2c1` has a pKa of 4.65.
In the case of `Cc1nc(C(=O)[O-])ccc1N(C)Cc1cccc(Cl)c1`, the pKa is reported as 4.45.
Work on `COc1ccc(N)c2ccccc12` yielded a pKa of 4.9.
Molecule `N#Cc1csc(NC(=O)Nc2ccc(Cl)c(Cl)c2)n1` has a pKa of 8.3.
Work on `c1ccc(-c2cnc3c(-c4ccnc5ccccc45)cnn3c2)cc1` yielded a pKa of 4.9.
For `c1ccc(Nc2nc(NC3CCCCC3)nc3ccccc23)cc1`, the pKa was 8.
With `O=C1CCCC2(CCN(c3cnc4ccccc4n3)CC2)N1Cc1ccccc1` the pKa was 3.3.
Molecule `COc1cccc(-c2nnc3n(Cc4ccccc4Cl)c(=O)c4ccccc4n23)c1O` has a pKa of 8.4.
`Nc1cccc2c1C(=O)N(C1CCC(=O)NC1=O)C2=O` (stereo not given) showed a pKa of 10.8.
`O=C(NO)C1c2ccccc2Oc2ccccc21` showed a pKa of 8.4.
`NC(=O)c1ccc(-c2cc(-c3ccccc3)cnc2N)cc1` gave a pKa of 5.4.
For `C[NH+](C)CCSc1nc2ccccc2cc1-c1ccccc1`, the pKa was 8.4.
For `Fc1cccc(-c2c[nH]c3ncccc23)c1`, the pKa was 4.1.
For `Cc1nc(-c2ccc(OCC(C)C)c(C#N)c2)sc1C(=O)[O-]`, the pKa was 4.
For `Cc1ccc2c(c1)C(=O)C(=O)N2`, the pKa was 9.8.
`C1=C(c2ccc3ccccc3c2)N2CC[NH+]=C2c2ccccc21` gave a pKa of 10.2.
For `COc1cccc(-c2cnc(N)c(-c3ccc(C(N)=O)cc3)c2)c1`, the pKa was 5.3.
`Nc1nc(-c2ccccn2)nc(N)c1Cc1ccc(Cl)cc1Cl` gave a pKa of 5.6.
`O=C(/C=C/c1ccc(Br)cc1)N1CC[NH+](Cc2ccccc2)CC1` gave a pKa of 6.1.
In the case of `COc1ccc2nccc(-n3cc4c(n3)CCC(NC(=O)c3ccc5c(c3)NC(=O)CS5)C4)c2n1` (stereo not given), the pKa is reported as 3.8.
Work on `COc1cc(Nc2ccccc2C(=O)[O-])cc(OC)c1` yielded a pKa of 4.
`CNC(=O)c1ccc(Oc2ccc3c(c2)CC[NH+](C2CCC2)CC3)nc1` gave a pKa of 8.6.
`Cc1ccc(NC(=O)c2ccccc2)cc1Nc1nccc(-c2cccnc2)n1` showed a pKa of 3.9.
`O=C([O-])c1ccccc1Nc1cc(C(F)(F)F)cc(C(F)(F)F)c1` gave a pKa of 3.9.
`O=C(Nc1nnc(-c2ccc(F)cc2)o1)c1ccc(Cl)s1` gave a pKa of 5.8.
In the case of `CCC1(c2ccccc2)C(=O)NC(=O)N(C)C1=O` (stereo not given), the pKa is reported as 7.6.
`c1ccc(Nc2ncc3ccccc3n2)cc1` gave a pKa of 3.6.
`CC(=O)Nc1cccc(Nc2nc(Nc3ccccc3)n3ncc(C#N)c3n2)c1` gave a pKa of 9.7.
For `O=C1N(Cc2ccccc2)CCCC12CCN(c1cnc3ccccc3n1)CC2`, the pKa was 3.6.
`COC(=O)c1ccc2[nH]cc(CN3CCCC4(CCN(c5nc(C)cc(C)n5)CC4)C3=O)c2c1` showed a pKa of 4.8.
`Nc1ncnc2ccc(-c3ccnc(F)c3)nc12` gave a pKa of 4.5.
In the case of `Cc1cc(C)nc(N2CCC3(CCCC(=O)N3Cc3cccc4[nH]ccc34)CC2)n1`, the pKa is reported as 4.4.
With `Nc1n[nH]c2cc(Br)ccc12` the pKa was 2.9.
In the case of `CCc1ccccc1N(CC)C(=O)C1CCN(c2ncnc3c2nc2n3CCCCC2)CC1`, the pKa is reported as 3.9.
With `O=C1CN(c2ccccc2)C(=O)N1` the pKa was 8.3.
With `Ic1cccc(-c2nn[n-]n2)c1` the pKa was 3.7.
Molecule `C1=C(c2ccccc2)N2CC[NH+]=C2c2ccccc21` has a pKa of 10.3.
Work on `O=C(Nc1nnc(-c2cccs2)o1)c1cccc(C(F)(F)F)c1` yielded a pKa of 5.7.
With `O=C(CSc1nccn1C1CCCC1)Nc1ccc(C(F)(F)F)cc1` the pKa was 5.1.
`O=C(NO)C1c2ccccc2-c2ccccc21` gave a pKa of 8.7.
Work on `CCc1ccc(/C=C2/SC(=S)[N-]C2=O)cc1` yielded a pKa of 5.8.
Molecule `O=C(Nc1ccc(F)c(Cl)c1)C1CCN(c2ncccn2)CC1` has a pKa of 3.8.
Molecule `O=C(Nc1nccs1)C(CC1CCCC1)c1ccc(Cl)cc1` (stereo not given) has a pKa of 10.5.
For `COC(=O)/C=C/C(=O)[O-]`, the pKa was 2.9.
With `Cc1cc(N)nc2ccccc12` the pKa was 7.9.
`COc1ccc(CNC(=O)c2c(C)nc3ccccn23)cc1` gave a pKa of 5.
`CNC(=O)c1nc(-c2ccc(Cl)c(S(=O)(=O)Nc3cccc(F)c3C)c2)cnc1N` showed a pKa of 7.6.
For `N#Cc1ccc2ccn(-c3ccnc(N)n3)c2c1`, the pKa was 4.6.
`CC(C(=O)[O-])c1ccc2c(c1)C(=O)c1ccccc1CS2` (stereo not given) gave a pKa of 4.1.
With `O=C([O-])COc1ccc2c(c1)Cc1ccccc1-2` the pKa was 3.
`CC(=O)n1cc(C2=C([O-])CC(C)(C)CC2=O)c2ccccc21` gave a pKa of 5.2.
In the case of `CC(C(=O)[O-])c1ccc2c(c1)Cc1ccccc1-2` (stereo not given), the pKa is reported as 4.3.
